Legend:
[1] = Paired-label study: thyroid and stomach uptake of [125I]INA and [131I]iodide in mice; format: in vivo
Excerpt: When radioiodine is released from proteins following in vivo administration, loss of label occurs (dehalogenation). Since free iodide is taken up avidly by the thyroid and, at early time points, localizes in the stomach, uptake of radioiodine by these tissues is often used as an indicator of dehalogenation in vivo.
(§1) The method of choice for comparing the pharmacokinetics of two radioiodinated products (or two samples of the same compound, each sample radioiodinated using a different method) is to administer both to the same group of animals, labeling the first with ^125 I and the second with ^131 I. By performing "paired-label" experiments, one can correct for systematic errors such as incomplete thyroid sampling (less than 10 mg in a mouse) which could make […] comparisons difficult.
(§2) In the first paired-label study, groups of mice were injected with both [^131 ]iodide and 5-^125 I]iodonicotinic acid (hereinafter INA), the labeled substrate which is attached to proteins in the SPC procedure.

[2] = aqueous solution; background; cited from earlier work
[3] = background; cited from earlier work
[4] = Whole body clearance of INA and iodide (FIG. 1); format: in vivo, mice; conditions: vs iodide
Protocol: as §1, §2
One approach for decreasing the retention of a nuclide in normal tissues following the administration of labeled antibodies is to couple the isotope in a chemical form which will be excreted rapidly after antibody catabolism. Degradation of antibodies labeled using the SPC method should result in the production of 5-iodonicotinic acid (INA).

thyroid uptake of 125I (INA), times lower than 131I (iodide) ([1]; thyroid, 125I vs 131I)	whole body clearance compared with iodide [4]	Structure (SMILES)	Stomach uptake ([1]; 1 hr after injection)	Thyroid uptake ([1]; 1 hr after injection)	Stomach uptake ([1]; 2 hr after injection)	Thyroid uptake ([1]; 2 hr after injection)	Stomach uptake ([1]; 4 hr after injection)	Thyroid uptake ([1]; 4 hr after injection)	Stomach uptake ([1]; 6 hr after injection)	Thyroid uptake ([1]; 6 hr after injection)	Stomach uptake ([1]; 24 hr after injection)	Thyroid uptake ([1]; 24 hr after injection)	hydrolysis of the active ester [2]	in vivo loss of radioiodine from the protein [3]	dehalogenation in vivo of INA template [1]	percentages of the injected dose localizing in thyroid and, at early time points, stomach, compared with iodide ([1]; vs iodide)
		I [Iodide, [^131 I]iodide, reference compound]	16.56 ± 8.10 percentages of the injected do	7.23 ± 1.27 percentages of the injected do	12.61 ± 7.33 percentages of the injected do	7.23 ± 1.39 percentages of the injected do	3.53 ± 0.74 percentages of the injected do	12.21 ± 3.27 percentages of the injected do	4.16 ± 1.82 percentages of the injected do	23.64 ± 4.95 percentages of the injected do	0.06 ± 0.02 percentages of the injected do	16.95 ± 4.98 percentages of the injected do				
		O=C(CCc1ccc(O)c([125I])c1)ON1C(=O)CCC1=O [Bolton-Hunter]											rapid hydrolysis of the active ester in aqueous solution			
		COC(=N)c1cc(I)c(O)c(I)c1 [Woods]												in vivo loss of radioiodine from the protein		
23-56 times lower	considerably faster than iodide	O=C(O)c1cncc([125I])c1 [INA, 5-[^125 I]iodonicotinic acid]	0.69 ± 0.40 percentages of the injected do	0.13 ± 0.13 percentages of the injected do	0.53 ± 0.41 percentages of the injected do	0.27 ± 0.09 percentages of the injected do	0.18 ± 0.03 percentages of the injected do	0.44 ± 0.21 percentages of the injected do	0.24 ± 0.10 percentages of the injected do	1.04 ± 0.24 percentages of the injected do	0.14 ± 0.01 percentages of the injected do	0.67 ± 0.19 percentages of the injected do			relatively inert to dehalogenation in vivo	significantly lower than those observed with iodide

From patent publication US5302700A, “Radiohalogenation conjugate technology” (Duke University, priority 1988, dated 1994)
